“And” between values parts separate entries of the source, which are not always exact repeats. Equal values may be shown once.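 Results reflect a 48-hour exposure of cells in 96-well plates to compound at five concentrations. GI50: concentration for 50% inhibition of growth.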 The source made the active and inactive calls. Rule as the data show it: active = GI50 up to about 1.1 µM and inactive = higher.
How the values were obtained:
Assay in all cases: inhibition of tumour cell growth, NCI panel, 48 h
A549 = test system: A549
ACHN = test system: ACHN
HCC 2998 = test system: HCC 2998
K562 = test system: K562
KM12 = test system: KM12
M14 = test system: M14
NCI-H522 = test system: NCI-H522
SF-295 = test system: SF-295
SK-OV-3 = test system: SK-OV-3
SN12C = test system: SN12C
SW-620 = test system: SW-620
TK-10 = test system: TK-10
UACC-257 = test system: UACC-257
UO-31 = test system: UO-31
SK-MEL-28 = test system: SK-MEL-28
SR = test system: SR

Measured: GI50

COc1ccc2c(c1)CC[C@@H]1C2CC[C@]2(C)C(=N\O)/C(=N/O)CC12 (stereo not given in full)
inactive: A549 10.1 µM | ACHN 15.7 µM | HCC 2998 22.3 µM | K562 8.32 µM | KM12 11.2 µM | M14 13.4 µM | NCI-H522 2.93 µM | SF-295 10 µM | SK-OV-3 18.4 µM | SN12C 17.7 µM | SW-620 17.6 µM | TK-10 18.2 µM | UACC-257 16.7 µM | UO-31 12.8 µM

CCCN1CN(C(C(=O)N[C@@H]2C(=O)N3C2SC(C)(C)C3C(=O)O)c2ccc(O)cc2)CSC1=S (stereo not given in full)
inactive: ACHN > 100 µM | K562 24.4 µM | KM12 > 100 µM | M14 > 100 µM | NCI-H522 22.6 µM | SF-295 > 100 µM | SK-MEL-28 > 100 µM | SK-OV-3 > 100 µM | SN12C > 100 µM | TK-10 > 100 µM | UACC-257 > 100 µM | UO-31 > 100 µM

Nc1ncnc2c1N=CN(Oc1ccccc1)N2
inactive: A549 > 100 µM | ACHN > 100 µM | K562 > 100 µM | KM12 > 100 µM | M14 > 100 µM | SF-295 > 100 µM | SK-MEL-28 > 100 µM | SK-OV-3 > 100 µM | SN12C 21.5 µM | SR > 100 µM | SW-620 > 100 µM | TK-10 > 100 µM | UACC-257 > 100 µM

COc1c(Sc2ccccc2)cc(Sc2ccccc2)c2cccnc12
inactive: A549 24 µM | ACHN 26.8 µM | HCC 2998 41.9 µM | K562 23.7 µM | KM12 24.4 µM | M14 27 µM | SF-295 17.3 µM | SK-MEL-28 35.9 µM | SK-OV-3 > 100 µM | SN12C 28.2 µM | SW-620 39.2 µM | TK-10 23.2 µM | UACC-257 18.2 µM | UO-31 19.1 µM

COc1ccc2cc3nc(O)cc(O)c3cc2c1OC
inactive: A549 > 100 µM | ACHN > 100 µM | HCC 2998 > 100 µM | K562 > 100 µM | KM12 > 100 µM | M14 > 100 µM | SF-295 > 100 µM | SK-MEL-28 > 100 µM | SN12C > 100 µM | SR > 100 µM | SW-620 > 100 µM | TK-10 > 100 µM | UACC-257 > 100 µM | UO-31 > 100 µM

COC1OC(COC(C)=O)C(OC(C)=O)C(OC(C)=O)C1NC(=O)N(CCCl)N=O (stereo not given)
inactive: A549 > 100 µM and 82.4 µM | ACHN > 100 µM | HCC 2998 > 100 µM | K562 65 µM | KM12 > 100 µM | M14 > 100 µM | NCI-H522 24.1 µM and 45.9 µM | SF-295 39.1 µM and 24.2 µM | SK-MEL-28 > 100 µM | SK-OV-3 > 100 µM | SN12C > 100 µM | SW-620 > 100 µM | TK-10 > 100 µM | UACC-257 > 100 µM

O=C(CC(=O)C1CCOC1=O)C(=O)Nc1ccc(Cl)cc1 (stereo not given)
inactive: A549 > 100 µM | ACHN > 100 µM | HCC 2998 > 100 µM | K562 > 100 µM | KM12 > 100 µM | M14 > 100 µM | NCI-H522 > 100 µM | SF-295 > 100 µM | SK-MEL-28 > 100 µM | SK-OV-3 > 100 µM | SN12C > 100 µM | SW-620 > 100 µM | TK-10 > 100 µM | UACC-257 > 100 µM | UO-31 > 100 µM

Fc1ccc2c(c1)SC1Oc3ccccc3-c3c1c-2nn3-c1ccccc1 (stereo not given)
inactive: A549 > 100 µM | ACHN > 100 µM | HCC 2998 > 100 µM | K562 > 100 µM | KM12 > 100 µM | NCI-H522 37.9 µM | SF-295 > 100 µM | SK-MEL-28 > 100 µM | SK-OV-3 > 100 µM | SW-620 > 100 µM | TK-10 > 100 µM | UACC-257 > 100 µM | UO-31 > 100 µM

[O-][n+]1c(-c2ccccc2)c2nc3ccccc3nc2c2ccccc21
inactive: A549 > 100 µM | ACHN > 100 µM | HCC 2998 > 100 µM | K562 > 100 µM | KM12 > 100 µM | M14 > 100 µM | NCI-H522 > 100 µM | SF-295 > 100 µM | SK-MEL-28 > 100 µM | SK-OV-3 > 100 µM | SN12C > 100 µM | SW-620 > 100 µM | TK-10 > 100 µM | UACC-257 > 100 µM | UO-31 > 100 µM

O=C1CCCC/C1=C1\C(=O)Nc2cc(F)ccc21
inactive: A549 > 100 µM | ACHN > 100 µM | HCC 2998 > 100 µM | K562 > 100 µM | KM12 > 100 µM | M14 > 100 µM | NCI-H522 > 100 µM | SF-295 > 100 µM | SK-MEL-28 > 100 µM | SK-OV-3 > 100 µM | SN12C > 100 µM | SW-620 35.3 µM | TK-10 > 100 µM | UACC-257 > 100 µM | UO-31 > 100 µM

COc1ccc(CN2CC(C)(C)C2=O)c(OC)c1
inactive: A549 > 100 µM | ACHN > 100 µM | HCC 2998 > 100 µM | K562 > 100 µM | KM12 > 100 µM | M14 > 100 µM | NCI-H522 > 100 µM | SF-295 > 100 µM | SK-MEL-28 > 100 µM | SK-OV-3 > 100 µM | SN12C > 100 µM | SW-620 > 100 µM | TK-10 > 100 µM | UACC-257 > 100 µM | UO-31 > 100 µM

Clc1ccccc1C1=NN(c2ccccc2)C2c3cc(Br)ccc3OCC12 (stereo not given)
inactive: A549 > 100 µM | ACHN > 100 µM | HCC 2998 > 100 µM | K562 > 100 µM | KM12 > 100 µM | NCI-H522 > 100 µM | SF-295 > 100 µM | SK-MEL-28 > 100 µM | SK-OV-3 > 100 µM | SW-620 > 100 µM | TK-10 > 100 µM | UACC-257 > 100 µM | UO-31 > 100 µM

Cc1ccc(S(=O)(=O)c2ccccc2[N+](=O)[O-])cc1
inactive: A549 > 100 µM | ACHN > 100 µM | HCC 2998 > 100 µM | K562 73.3 µM | KM12 > 100 µM | M14 > 100 µM | SF-295 > 100 µM | SK-MEL-28 > 100 µM | SK-OV-3 > 100 µM | SW-620 > 100 µM | TK-10 > 100 µM | UACC-257 72.6 µM | UO-31 81.8 µM

O=C1OC(O)C(Oc2ccc(Cl)cc2)=C1Cl (stereo not given)
inactive: A549 > 100 µM | ACHN > 100 µM | HCC 2998 > 100 µM | K562 > 100 µM | KM12 > 100 µM | M14 > 100 µM | NCI-H522 > 100 µM | SF-295 > 100 µM | SK-MEL-28 > 100 µM | SK-OV-3 > 100 µM | SN12C > 100 µM | SW-620 > 100 µM | TK-10 > 100 µM | UACC-257 > 100 µM | UO-31 > 100 µM
